17 compounds from US7410975B2, “Small molecule toll-like receptor (TLR) antagonists” (Coley Pharmaceutical Group, Inc., priority 2003, dated 2008) can be followed below.

Counter-ions that a name gives are not always drawn.

The first assay addresses T1, human TLR9 (hTLR9) (Homo sapiens, UniProt Q9NR96).
T1 construct: expressed in transfected cells
T1 sequence (Q9NR96 26-1032): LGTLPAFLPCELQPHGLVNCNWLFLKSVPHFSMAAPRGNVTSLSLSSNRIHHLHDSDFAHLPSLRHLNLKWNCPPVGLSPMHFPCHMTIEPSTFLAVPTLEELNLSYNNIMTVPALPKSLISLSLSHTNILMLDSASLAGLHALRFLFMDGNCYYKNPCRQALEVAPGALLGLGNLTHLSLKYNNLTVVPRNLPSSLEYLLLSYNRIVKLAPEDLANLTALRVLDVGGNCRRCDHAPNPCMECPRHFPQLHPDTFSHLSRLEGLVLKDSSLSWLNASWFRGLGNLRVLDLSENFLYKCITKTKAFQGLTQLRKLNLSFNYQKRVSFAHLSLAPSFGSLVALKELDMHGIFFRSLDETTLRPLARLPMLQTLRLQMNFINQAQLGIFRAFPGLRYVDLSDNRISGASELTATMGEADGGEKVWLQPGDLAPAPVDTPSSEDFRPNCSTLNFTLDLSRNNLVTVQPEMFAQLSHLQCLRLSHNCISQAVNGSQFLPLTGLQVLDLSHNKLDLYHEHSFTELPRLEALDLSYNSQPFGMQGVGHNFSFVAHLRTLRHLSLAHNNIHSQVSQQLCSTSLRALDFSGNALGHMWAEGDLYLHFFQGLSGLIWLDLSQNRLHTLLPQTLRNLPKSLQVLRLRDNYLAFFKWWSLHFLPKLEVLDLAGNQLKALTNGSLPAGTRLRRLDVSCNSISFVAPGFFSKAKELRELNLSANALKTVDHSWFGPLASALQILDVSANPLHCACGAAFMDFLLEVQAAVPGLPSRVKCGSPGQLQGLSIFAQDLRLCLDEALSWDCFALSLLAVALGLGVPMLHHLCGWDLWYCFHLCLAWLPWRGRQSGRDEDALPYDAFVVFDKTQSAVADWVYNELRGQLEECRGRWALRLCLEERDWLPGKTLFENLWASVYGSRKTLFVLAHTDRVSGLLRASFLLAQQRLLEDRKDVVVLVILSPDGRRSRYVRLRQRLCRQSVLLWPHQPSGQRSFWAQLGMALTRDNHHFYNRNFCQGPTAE
The experiment in a line: Antagonist screen, hTLR9-NFκB-293 cells, 6× NF-κB-luciferase reporter, with EC50 of CpG ODN 2006. It is filed as cell-based. To be noted: FIG. 1, graph. As to the method: Candidate small molecules for initial screening were obtained from a commercially available library of 880 off-patent small molecules selected for structural diversity and proven bioavailability in humans (Prestwick Chemical Library). […] Results were measured as fold induction over baseline luciferase activity measured in the absence of ODN 2006 and compared to fold induction over baseline in the presence of the EC50 concentration of ODN 2006 alone. […] Additional screening was performed in like manner using additional small molecules selected from another library or specifically prepared for this purpose.
The method is described in greater detail as follows. The cells for each individual cell clone (hTLR3-NFκB-293, hTLR7-NFκB-293, hTLR8-NFκB-293 and hTLR9-NFκB-293) were counted and seeded one day before the stimulation at 1.5×10^4 cells per well in 96-well cell culture plates. To become adherent the cells were incubated after seeding overnight at 37° C. in 5% CO2 humidified air.
The screen for each compound was performed at the same time for all of the receptors TLR3, TLR7, TLR8 and TLR9. Up to fifteen test compounds, each assayed in duplicate at each of three different final concentrations (0.5 μg/ml, 5 μg/ml, and 50 μg/ml), were used for 16 h cell stimulation on a single multiwell culture plate. A 4× final concentration master plate was created to prepare the different test compounds before they were added to the cells.
Controls were added as duplicates individually for each cell clone on the cell culture plate. Positive controls were used as follows (final concentrations): 50 μg/ml poly(I:C) for hTLR3-NFκB-293; 8 μM resiquimod (R848) for hTLR7-NFκB-293; 30 μM R848 for hTLR8-NFκB-293; and 2.5 μM CpG-ODN 2006 for hTLR9-NFκB-293. Media alone was used as negative control. After addition of controls and small molecules, the cell clones were additionally stimulated with the EC50 concentration of the appropriate receptor-specific ligand.
The mean value of wells H2 and H5 (each with cells and EC50 concentration of the appropriate receptor-specific ligand) divided by the mean of wells H3 and H6 (each with cells alone) yielded the baseline response (i.e., fold induction of luciferase activity) to EC50 concentration of the appropriate receptor-specific ligand.
After 16 h stimulation the supernatant was removed and the cells treated with lysis buffer and stored at −80° C. before measuring.
For each screen result a graphical documentation was performed.
The baseline result (measured with addition of the EC50 concentration of the receptor-specific ligand) for each cell culture plate was measured as described above. Antagonistic effects were measured by down regulation compared to the baseline. Antagonists were scored as follows: • 13: compounds for which there was clear down regulation at 0.5 μg/ml, 5 μg/ml, and 50 μg/ml; • 12: compounds for which there was clear down regulation at 5 μg/ml and 50 μg/ml; • 11: compounds for which there was clear down regulation only at 50 μg/ml; • —: compounds for which there was no clear down regulation even at 50 μg/ml. Agonists
`COc1ccc2c(c1)[nH]c1c(C)nccc12.Cl` [compound 613, harmine hydrochloride]: the “inhibition of TLR9 signaling in response to CpG ODN 2006 (FIG. 1)” value was “concentration-dependent inhibition”.

Still in this assay, the particulars now being: compound at 0.5, 5, 50 μg/ml; EC50 concentration of CpG ODN 2006; 16 h; NF-κB-luciferase.
For `Cc1nccc2c1[nH]c1ccccc12` [compound 620, Harmane hydrochloride], the “hTLR9 (inhibitory effect, antagonist score)” value is 12 (compounds for which there was clear down regulation at 5 μg/ml and 50 μg/ml).

For `OC(c1ccccc1)(c1ccccc1)C1CCNCC1` [compound 93, Azacyclonol], the “hTLR9 (inhibitory effect, antagonist score)” value is given as 11 (compounds for which there was clear down regulation only at 50 μg/ml).

For the compound `CC1NCCc2c1[nH]c1ccccc21.Cl` (racemic) [compound 619, Eleagnine hydrochloride (R,S)], the “hTLR9 (inhibitory effect, antagonist score)” value was 12 (compounds for which there was clear down regulation at 5 μg/ml and 50 μg/ml).

Take `CC(=O)Oc1cc(C)c(C2(c3cc(C(C)C)c(OC(C)=O)cc3C)OC(=O)c3ccccc32)cc1C(C)C` [compound 1161]: the “hTLR9 (inhibitory effect, antagonist score)” value is 12 (compounds for which there was clear down regulation at 5 μg/ml and 50 μg/ml).

Consider `C[C@]12N[C@H](Cc3ccccc31)c1ccccc12.O=C(O)/C=C\C(=O)O` [compound 109, Dizocilpine maleate], for which the “hTLR9 (inhibitory effect, antagonist score)” value is 13 (compounds for which there was clear down regulation at 0.5 μg/ml, 5 μg/ml, and 50 μg/ml).

Regarding `NC(=O)c1cccc2c1-c1ccccc1C2` [compound 1132], the “hTLR9 (inhibitory effect, antagonist score)” value is reported as “— (compounds for which there was no clear down regulation even at 50 μg/ml)”.

Consider `CN1CCCCC1CCN1c2ccccc2Sc2ccc([S+](C)[O-])cc21.O=S(=O)(O)c1ccccc1` (stereo not drawn) [compound 529, Mesoridazine besylate], for which the “hTLR9 (inhibitory effect, antagonist score)” value was 11 (compounds for which there was clear down regulation only at 50 μg/ml).

For the compound `COc1ccc2c(c1)[nH]c1c(C)nccc12.Cl` [compound 613, harmine hydrochloride], the “hTLR9 (inhibitory effect, antagonist score)” value is 13 (compounds for which there was clear down regulation at 0.5 μg/ml, 5 μg/ml, and 50 μg/ml).

On to `Cc1cccc(C)c1NC(=O)CN1CCN(CCCC(c2ccc(F)cc2)c2ccc(F)cc2)CC1` [compound 381, Lidoflazine], for which the “hTLR9 (inhibitory effect, antagonist score)” value is 11 (compounds for which there was clear down regulation only at 50 μg/ml).

Take Flunarizinehydrochloride [compound 312]: the “hTLR9 (inhibitory effect, antagonist score)” value is 12 (compounds for which there was clear down regulation at 5 μg/ml and 50 μg/ml).

With `O=C(O)c1cccc2c1-c1ccccc1/C2=N/Nc1ccc([N+](=O)[O-])cc1[N+](=O)[O-]` [compound 944], the “hTLR9 (inhibitory effect, antagonist score)” value is on record as “— (compounds for which there was no clear down regulation even at 50 μg/ml)”.

On to `CN1CCN(CCCN2c3ccccc3Sc3ccc(S(=O)(=O)N(C)C)cc32)CC1.CS(=O)(=O)O.CS(=O)(=O)O` [compound 149, Thioproperasinedimesylate], for which the “hTLR9 (inhibitory effect, antagonist score)” value is 13 (compounds for which there was clear down regulation at 0.5 μg/ml, 5 μg/ml, and 50 μg/ml).

As for `Cc1nccc2c1[nH]c1cc(O)ccc12.Cl` [compound 612, Harmol hydrochloride monohydrate], the “hTLR9 (inhibitory effect, antagonist score)” value was 12 (compounds for which there was clear down regulation at 5 μg/ml and 50 μg/ml).

As for Maprotilinehydrochloride [compound 346], the “hTLR9 (inhibitory effect, antagonist score)” value is 11 (compounds for which there was clear down regulation only at 50 μg/ml).

In the case of `C[N+]12CCC(CC1)C(OC(=O)C(O)(c1ccccc1)c1ccccc1)C2.[Br-]` (stereo not drawn) [compound 822, Clidinium bromide], the “hTLR9 (inhibitory effect, antagonist score)” value is 12 (compounds for which there was clear down regulation at 5 μg/ml and 50 μg/ml).

On to `CCN(CC)C(C)CN1c2ccccc2Sc2ccccc21.Cl` (stereo not drawn) [compound 840, Ethopropazinehydrochloride], for which the “hTLR9 (inhibitory effect, antagonist score)” value is 11 (compounds for which there was clear down regulation only at 50 μg/ml).

For the compound “Prochlorperazinedimaleate [compound 399]”, the “hTLR9 (inhibitory effect, antagonist score)” value was 12 (compounds for which there was clear down regulation at 5 μg/ml and 50 μg/ml).
